Results: patent US20250382272A1, “CRYSTALLINE FORM OF INDAZIFLAM, METHODS FOR ITS PREPARATION AND USE THEREOF” (ADAMA AGAN LTD., priority 2022, published 2025)

Assay: Bulk and tapped density, compressibility index (USP <1174> Powder Flow) of indaziflam crystal samples
Type: physicochemical
Conditions: for Tap density: cylinder manually tapped (dropped) 50 times, ~1 second between taps; for flowability: judged from compressibility index as explained in US Pharmacopoeia method <1174> Powder Flow; for Bulk Density: sample poured into tared cylinder to 250 ml mark and weighed
Procedure: For purposes of sufficiency of disclosure, the “compressibility index” means in the present invention the compressibility index measured according to US Pharmacopoeia method <1174> Powder Flow, revision from 20 Jan. 2023.
Bulk and tapped density measurements are obtained by placing a sample onto a glazed paper. Then, the sample is poured into the tared cylinder until 250 ml mark is reached. The amount of sample is weighed. Rubber bung is fitted into the cylinder. Cylinder is placed in the dropping box and manually tapped (dropped) 50 times with ˜1 second time difference between taps. Compressibility index is calculated from the bulk density and the tapped density as explained in US Pharmacopoeia method <1174> Powder Flow, revision from 20 Jan. 2023.

Row | Compound | Tap density [gr/ml] | flowability | Bulk Density [gr/ml]
1 | Cc1ccc2c(c1)[C@H](Nc1nc(N)nc([C@@H](C)F)n1)[C@@H](C)C2 [Comparative Example 3, N-[(1R,2S)-2,6-dimethyl-2,3-dihydro-1H-inden-yl]-6-[(1R)-1-fluoroethyl]-1,3-5-triazine-2,4-diamine, reference compound] | 0.59 | not good | 0.48
2 | Cc1ccc2c(c1)[C@H](Nc1nc(N)nc([C@@H](C)F)n1)[C@@H](C)C2 [Example 1, N-[(1R,2S)-2,6-dimethyl-2,3-dihydro-1H-inden-yl]-6-[(1R)-1-fluoroethyl]-1,3-5-triazine-2,4-diamine] | 0.65 | – | 0.56
3 | Cc1ccc2c(c1)[C@H](Nc1nc(N)nc([C@@H](C)F)n1)[C@@H](C)C2 [Example 2, N-[(1R,2S)-2,6-dimethyl-2,3-dihydro-1H-inden-yl]-6-[(1R)-1-fluoroethyl]-1,3-5-triazine-2,4-diamine] | 0.52 | good flowability | 0.47
